Results as given in US20260200903A1, “PHARMACEUTICAL COMPOSITION FOR AMELIORATING MALIGNANT DISEASES” (KINKI UNIVERSITY, priority 2020, published 2026).
pIC50: −log10 of the molar value.

Experiments:
Type in all cases: cell-based
[1] = tested on: KMS-28BM cells (myeloma cell line); test: Cell death inducing effect on KMS-28BM cells, trypan blue staining; details: KMS-28BM (myeloma), cell viability
Procedure: (§1) KMS-28BM cells (myeloma cell line) were cultured under 5% CO2 at 37° C. The culture medium used RPMI-1640 medium with 100 μg/mL penicillin, 100 U/mL streptomycin and fetal bovine serum. KMS-28BM cells were seeded into 96-well plates and incubated with each concentration of the compounds was added, and cell viability was determined by the trypan blue staining.
(§2) For controls, only 0.5% DMSO (diluted in PBS) used to dissolve the compounds was added. For each concentration, each bar line is indicated by an arrow with the sign “n, a, 1, 2, 3, 4, 5, 6, 7, 8, 9, 10, 11, 12” from left to right. The “1, 3, 5, 7, 9, 11” are omitted from the graph, but the sign “1” shall be indicated by an arrow between the signs “a” and “2”, the sign “3” between the signs “2” and “4”, and other odd numbers shall likewise be indicated by arrows between even numbers before and after.
(§3) The sign “n” is the norathyriol (formula (n)) administration group, the sign “a” is the mangiferin 8a (formula (a)) administration group, the sign “1” is the yk-7 (formula (1)) administration group, the sign “2” is the yk-8-1 (formula (2)) administration group, the sign “3” is the yk-8-3 (formula (3)) administration group, the sign “4” is the M7 (formula (4)) administration group, the sign “5” is the M9 (formula (5)) administration group, the sign “6” is the M11 (formula (6)) administration group, the sign “7” is the M12 (formula (7)) administration group, the sign “8” is the M14 (formula (8)) administration group, the sign “9” is the M15 (formula (9)) administration group, the sign “10” is the M16 (formula (10)) administration group, the sign “11” is the M18 (formula (11)) administration group, the sign “12” is the M19 (formula (12)) administration group, respectively. The IC50 values for each compound is also listed in the upper right corner of the figure.

[2] = tested on: Rec-1 cells (mantle cell lymphoma cell line); test: Cell death inducing effect on Rec-1 cells, trypan blue staining; details: Rec-1 (mantle cell lymphoma), cell viability
Procedure: as §1, with “Rec-1” for “KMS-28BM”, “(mantle cell lymphoma” for “(myeloma”
as §2, §3

[3] = tested on: Raji cells (burkitt lymphoma cell line); test: Cell death inducing effect on Raji cells, trypan blue staining; details: Raji (Burkkit lymphoma), cell viability
Procedure: as §1, with “Raji” for “KMS-28BM”, “(burkitt lymphoma” for “(myeloma”
as §2, §3

[4] = tested on: RR1 cells (rituximab-resistant burkitt lymphoma cell line); test: Cell death inducing effect on RR1 cells, trypan blue staining; details: RR1 (Burkkit lymphoma; rituximab resistance), cell viability
Procedure: Raji cells, a burkitt lymphoma cell line, were modified to be rituximab-resistant and named RR1 cells.
RR1 cells (rituximab-resistant burkitt lymphoma cell line) were cultured under 5% CO2 at 37° C. The culture medium used RPMI-1640 medium with 100 μg/mL penicillin, 100 U/mL streptomycin and fetal bovine serum. RR-1 cells were seeded into 96-well plates and incubated with each concentration of the compounds was added, and cell viability was determined by the trypan blue staining.
as §2, §3

[5] = tested on: SU-DHL-4 cells (diffuse large B-cell lymphoma); test: Cell death inducing effect on SU-DHL-4 cells, trypan blue staining; details: SU-DHL-4 (DLBCL), cell viability
Procedure: SU-DHL-4 cells (diffuse large B-cell lymphoma) were cultured under 5% CO2 at 37° C.
The culture medium used RPMI-1640 medium with 100 μg/mL penicillin, 100 U/mL streptomycin and fetal bovine serum. SU-DHL-4 cells were seeded into 96-well plates and incubated with each concentration of the compounds was added, and cell viability was determined by the trypan blue staining.
as §2, §3

[6] = tested on: RPMI1788 cells (human normal B cell line); test: Cell death inducing effect on RPMI1788 normal B cells, trypan blue staining; details: RPMI1788 (normal B lymphocyte), cell viability
Procedure: as §1, with “RPMI1788” for “KMS-28BM”, “(human normal B” for “(myeloma”
as §2, §3

[7] = tested on: CD138; test: CD138 expression in L363 cells, flow cytometry; details: 10 days, concentration lower than the IC50 (0.005-50 μM), compared to the positive control
Procedure: (§4) As a control, compounds untreated L363 cells were seeded in 75 cm^2 flasks and incubated for 10 days at 37° C. and 5% CO2. L363 cells were seeded into 75 cm^2 flasks and pre-cultured for 4 h. After incubation, L363 cells were treated with 0.1 μM M7, 0.05 μM M9, 0.1 μM yk-7, 0.1 μM yk-8-3, 50 μM yk-8-1, 0.1 μM M11, 0.01 μM M12, 0.005 μM M14, 0.005 μM M15, 0.005 μM M16, 1 μM M18, and 1 μM M19 at final concentrations, and incubated for 10 days at 37° C. and 5% CO2. This added amount is a concentration lower than the IC50 of the above compounds for L363 cells. After 10 days of incubation, cells were stained with anti-CD138 antibody, a marker of multiple myeloma grade, and CD138 expression was measured using BD LSRFortessa.
Results are shown in FIG. 25, FIG. 26, FIG. 27 and FIG. 28. The horizontal axis represents the expression level of CD138 and the vertical axis represents the number of cells.

[8] = tested on: CD20; test: CD20 expression in L363 cells, flow cytometry; details: 10 days, concentration lower than the IC50 (0.005-50 μM), compared to the positive control
Procedure: as §4, with “anti-CD20” for “anti-CD138”, “B cell marker,” for “marker of multiple myeloma grade,”, “CD20” for “CD138”, “LSRFortessa. CCRF-SB cells were used as CD20-positive controls.” for “LSRFortessa.”
Results are shown in FIG. 29, FIG. 30, FIG. 31, and FIG. 32. The horizontal axis represents the expression level of CD20 and the vertical axis represents the number of cells.

Row | Compound | pIC50 [1] | pIC50 [2] | pIC50 [3] | pIC50 [4] | pIC50 [5] | pIC50 [6] | CD138 expression levels [7] | CD20 expression level [8] | pIC50 ([2]; Homo sapiens, Rec1) | pIC50 ([3]; Homo sapiens) | pIC50 ([5]; Homo sapiens) | pIC50 ([6]; Homo sapiens, RPMI-1788)
1 | CCCC(=O)OC[C@H]1O[C@@H](c2c(OC(=O)CCC)cc3oc4cc(OC(=O)CCC)c(OC(=O)CCC)cc4c(=O)c3c2OC(=O)CCC)[C@H](OC(=O)CCC)[C@@H](OC(=O)CCC)[C@@H]1OC(=O)CCC [Compound M11, 1,3,2′,3′,4′,6,6′,7-octa-O-butyrylmangiferin] | 5.72 | 6.03 | 6.16 | 6.08 | 6.38 | < 4.00 | markedly reduced | significantly increased | – | – | – | –
2 | CCCCC(=O)OC[C@H]1O[C@@H](c2c(O)cc3oc4cc(O)c(O)cc4c(=O)c3c2OC(=O)CCCC)[C@H](OC(=O)CCCC)[C@@H](OC(=O)CCCC)[C@@H]1OC(=O)CCCC [yk-8-3, 1,2′,3′,4′,6-penta-O-valerylmangiferin] | 6.24 | – | – | 7.14 | – | – | markedly reduced | significantly increased | 5.48 | 6.06 | 6.46 | 6.38
3 | C=CCOc1cc(O)cc2oc3cc(O)c(O)cc3c(=O)c12 [Compound M19, 1-allyloxy-3,6,7-trihydroxy-9H-xanthen-9-one] | 5.68 | – | – | 6.10 | – | – | markedly reduced | significantly increased | 4.66 | 5.05 | 4.76 | < 4.00
4 | O=c1c2cc(O)c(O)cc2oc2cc(O)cc(O)c12 [norathyriol, reference compound] | 5.82 | – | – | 6.13 | – | – | – | – | 4.80 | 5.07 | 4.73 | –
5 | O=c1c2cc(O)c(O)cc2oc2cc(O)cc(OCCO)c12 [Compound M18, 3,6,7-trihydroxy-1-(2-hydroxyethoxy)-9H-xanthen-9-one] | 6.05 | – | – | 6.19 | – | – | markedly reduced | significantly increased | 5.04 | 5.25 | 5.02 | < 4.00
6 | CCC(=O)OC[C@H]1O[C@@H](c2c(OC(=O)CC)cc3oc4cc(OC(=O)CC)c(OC(=O)CC)cc4c(=O)c3c2OC(=O)CC)[C@H](OC(=O)CC)[C@@H](OC(=O)CC)[C@@H]1OC(=O)CC [Compound M7, 1,3,2′,3′,4′,6,6′,7-octa-O-propionylmangiferin] | 6.11 | – | – | 7.00 | – | – | markedly reduced | significantly increased | 5.65 | 6.05 | 6.11 | < 4.00
7 | CCCCO[C@@H]1[C@@H](OCCCC)[C@H](c2c(O)cc3oc4cc(O)c(O)cc4c(=O)c3c2O)O[C@H](COC(=O)CCC)[C@H]1OC(=O)CCC [Compound M16, 2′,3′-di-O-butyl-4′,6′-di-O-butyrylmangiferin] | 7.15 | – | – | 8.15 | – | – | markedly reduced | significantly increased | 7.70 | 7.10 | 7.96 | 4.24
8 | 1,2′,3′,4′,6-penta-O-propionylmangiferin [Compound 8a, reference compound] | 5.66 | 4.65 | 5.38 | 6.48 | 5.09 | < 4.00 | – | – | – | – | – | –
9 | CCC(=O)OC[C@H]1O[C@@H](c2c(O)cc3oc4cc(O)c(O)cc4c(=O)c3c2O)[C@H](OC(=O)CC)[C@@H](OC(=O)CC)[C@@H]1OC(=O)CC [Compound M9, 2′,3′,4′,6′-tetra-O-propionylmangiferin] | 6.68 | – | – | 8.15 | – | – | markedly reduced | significantly increased | 6.09 | 6.64 | 7.07 | < 4.00
10 | CCCC(=O)OC[C@H]1O[C@@H](c2c(O)cc3oc4cc(O)c(O)cc4c(=O)c3c2O)[C@H](OC(=O)CCC)[C@@H](OC(=O)CCC)[C@@H]1OC(=O)CCC [Compound M14, 2′,3′,4′,6′-tetra-O-butyrylmangiferin] | 7.10 | – | – | 8.10 | – | – | markedly reduced | significantly increased | 7.62 | 7.07 | 8.70 | 4.16
11 | CCCCC(=O)OC[C@H]1O[C@@H](c2c(O)cc3oc4cc(O)c(O)cc4c(=O)c3c2O)[C@H](OC(=O)CCCC)[C@@H](OC(=O)CCCC)[C@@H]1OC(=O)CCCC [yk-7, 2′,3′,4′,6′-tetra-O-valerylmangiferin] | 5.28 | – | – | 7.38 | – | – | markedly reduced | significantly increased | 5.59 | 6.42 | 6.54 | 5.56
12 | CC(C)(C)C(=O)OC[C@H]1O[C@@H](c2c(O)cc3oc4cc(O)c(O)cc4c(=O)c3c2O)[C@H](OC(=O)C(C)(C)C)[C@@H](OC(=O)C(C)(C)C)[C@@H]1OC(=O)C(C)(C)C [Compound M15, 2′,3′,4′,6′-tetra-O-pivaloylmangiferin] | 6.77 | – | – | 7.96 | – | – | markedly reduced | significantly increased | 7.49 | 7.02 | 8.70 | 4.15
